Reference: patent publication US20100008965A1, “BIOCOMPATIBLE MEDICAL PRODUCTS HAVING ENHANCED ANTI-THROMBOGENIC PROPERTIES” (priority 2008, published 2010)

Assays:
HCAEC [1] = assay: HCAEC cell binding assay to immobilized fibronectin polypeptides (crystal violet); assay type: cell-based, human; conditions: immobilized peptide, 8 h, on average
Experimental: Human coronary artery endothelial cell (HCAEC) and human umbilical vein endothelial cell (HUVEC) primary human cells were obtained (Cambrex Corporation, East Rutherford, N.J.) and maintained according to the manufacturer's instructions at 37° C. and 5% CO2. HCAEC were grown in microvascular endothelial cell medium (EBM-2 MV, Cambrex) supplemented with 5% fetal bovine serum, 0.1% human epidermal growth factor, 0.04% hydrocortisone, 0.1% vascular endothelial growth factor, 0.4% human fibroblast growth factor-B, 0.1% R^3-insulin-like growth factor-1, 0.1% ascorbic acid, and 0.1% gentamicin and amphotericin-B (GA-1000). HUVEC were grown in endothelial cell medium (EBM, Cambrex) supplemented with 2% fetal bovine serum, 0.4% bovine brain extract, 0.1% human epidermal growth factor, 0.1% hydrocortisone, and 0.1% gentamicin and amphotericin-B (GA-1000). HCAEC and HUVEC were subcultured at 90-95% confluence using 0.05% trypsin-EDTA (Invitrogen, Carlsbad, Calif.) and used for experiments between passages 3-7 (HUVEC) or 5-11 (HCAEC).
HCAEC or HUVEC cell binding assays to immobilized recombinant fibronectin polypeptides were performed in order to ascertain which polypeptide(s) maximally support(s) alpha-4 integrin-mediated cell adhesion. Connecting Segment-1 (SEQ ID NO:1), EILDV (SEQ ID NO:2), RGDS (SEQ ID NO:3) (positive control), RGES (SEQ ID NO:4) (negative control), and EILEVPST (SEQ ID NO:5) (negative control) and were immobilized by drying overnight at room temperature in Immobilizer™ Amino 96-well microplates (Nalge Nunc International, Rochester, N.Y.). RGES, EILDV, and EILEVPST were incubated at a molar equivalent concentration equal to 200 μg RGDS per well. CS-1 was incubated at 50 μg/well. On a molar basis per well, this equates to approximately twenty-fold less CS-1 relative to RGDS. […] Cells were manually counted, and their concentration adjusted to yield a total cell population of 5×10^4 cells/well. […] Spectrometric absorbance values were read at 562 nm at room temperature using a ThermoMax microplate reader (Molecular Devices Corporation, Sunnyvale, Calif.).

HCAEC [2] = assay: HCAEC retention under unidirectional fluid flow; assay type: cell-based, human; conditions: 15 dyne/cm^2, thirty minutes
Experimental: In addition to the above, 75×38×1 mm glass microscope slides (Fisher Scientific Research, Pittsburgh, Pa.) were sterilized and coated overnight with human plasma fibronectin or CS-1 peptide at 5 μg/cm^2, or with PBS only. Slides were incubated for one hour at room temperature with a 0.01% (w/v) sterile-filtered BSA solution. HCAEC or HUVEC were seeded in basal medium on slides at 1.85×10^4 cells/cm^2 and permitted to adhere for eight hours under static conditions at 37° C. Fluid flow was performed using parallel plate flow chambers connected to fluid flow loops, as described in Pavalko et al., Fluid shear stress inhibits TNF-alpha-induced apoptosis in osteoblasts: a role for fluid shear stress-induced activation of PI3-kinase and inhibition of caspase-3. J Cell Phys 194, 194, 2002. Briefly, endothelial cell-seeded slides were secured within flow chambers and connected to fluid flow loops. All flows were performed in a 37° C. environment with serum-free culture medium that was continually bathed in a 5% CO2 atmosphere. […] Fluorescence micrographs were captured as described above. […] Nuclei were counted from five equally distributed visual fields per slide and pooled together for each substrate condition. Data was calculated as percent (%) cell retention, where % retention=[(average nuclei count)flow÷(average nuclei count)static]×100.

human platelets = assay: DiOC6-labeled platelet adhesion imaging under shear flow; assay type: cell-based; conditions: 16.5 dyne/cm^2, one hour, platelets activated prior to flow
Experimental: To visualize shear stress-mediated platelet adhesion to the immobilized ECM proteins, non-radiolabeled non-activated or thrombin-activated human platelets were prepared as described above, but were first incubated for ten minutes at room temperature with a 10 μM DiOC6 (dihexaoxacarbocyanine iodide) (Sigma) solution prior to being subjected to flow for one hour at a shear stress τ=16.5 dyne/cm^2. Post-flow, all slides were rinsed twice with PBS and fixed with 4% (w/v) paraformaldehyde. Platelet adhesion was visualized on a Nikon Diaphot 200 inverted epifluorescence microscope (Nikon) at 488 nm using a 40× objective. Images were captured using an Olympus DP70 digital camera (Olympus America, Inc.) and analyzed using the Adobe® Photoshop® software package version 6.0 (Adobe Systems Incorporated, San Jose, Calif.).

Substance: CS-1: full-length 25 amino acid polypeptide, first 25 amino acid sequence of the fibronectin type IIICS domain (DELPQLVTLPHPNLHGPEILDVPST; Homo sapien)
- more of the total HCAEC population adhered relative to RGES (HCAEC [1]): about 20%
- HCAEC percent retention versus non-ECM-coated control substrate (HCAEC [2]; p<0.05): statistically greater
- HCAEC percent retention versus fibronectin substrate (HCAEC [2]; p=0.9): not statistically different
- thrombin-activated platelet adhesion and thrombus formation (DiOC6 images) (human platelets): higher binding to the CS-1 substratum relative to their non-activated counterparts
